Experimental data taken from ChEMBL document CHEMBL5120927, “LEGO-Lipophosphonoxins: A Novel Approach in Designing Membrane Targeting Antimicrobials” (J Med Chem, 2022).
Calls of active or inactive are those of the source. The rule behind the calls is not given here.

Columns and labels:
[1] = system: Lipid bilayer; experiment: Induction of membrane disruption of […] membrane mimic DOPC/DOPE (2:1) large unilamellar vesicles assessed as carboxyfluorescein leakage at 2.5 mg/L measured after 90 mins by spectrofluorometer analysis
[2] = Gradient chromatographic hydrophobicity index of the compound at pH 3.7 by HPLC analysis; format: ADME
[3] = system: Pseudomonas aeruginosa; experiment: Antibacterial activity against multidrug-resistant Pseudomonas aeruginosa assessed as reduction in microbial growth incubated for 24 hrs by microdilution assay; format: functional
[4] = system: Staphylococcus epidermidis; experiment: Antibacterial activity against Staphylococcus epidermidis CCM 7221 assessed as inhibition of bacterial growth incubated for 24 hrs by microdilution assay; format: functional
[5] = system: Escherichia coli; experiment: Antibacterial activity against Escherichia coli ATCC 25922 = CCM 3954 assessed as inhibition of bacterial growth incubated for 24 hrs by microdilution assay; format: functional
[6] = system: Lipid bilayer; experiment: Induction of membrane disruption of bacterial inner membrane mimic DOPE/DOPG (2:1) large unilamellar vesicles assessed as carboxyfluorescein leakage at 2.5 mg/L measured after 90 mins by spectrofluorometer analysis
[7] = system: Escherichia coli; experiment: Antibacterial activity against Escherichia coli ATCC 25922 = CCM 3954 assessed as inhibition of bacterial growth incubated for 24 hrs in presence of BSA by microdilution assay; format: functional
[8] = system: Pseudomonas aeruginosa; experiment: Antibacterial activity against Pseudomonas aeruginosa ATCC 27853 = CCM 3955 assessed as inhibition of bacterial growth incubated for 24 hrs by microdilution assay; format: functional
[9] = Hemolytic activity in human RBC assessed as haemoglobin release measured after 3 hr; format: toxicity, cell-based, Erythrocyte; conditions: red blood cells (erythrocytes)
[10] = system: Staphylococcus aureus; experiment: Antibacterial activity against methicillin resistant Staphylococcus aureus 4591/A assessed as reduction in microbial growth incubated for 24 hrs by microdilution assay; format: functional
[11] = system: Cell membrane; experiment: Induction of membrane permeabilization in Escherichia coli CCM 3954 assessed as propidium iodide influx measured after 80 mins by spectrofluorometer method; conditions: dose 2.5-5 mg/L, DDE = dose-dependent effect
[12] = system: Enterococcus faecalis; experiment: Antibacterial activity against Enterococcus faecalis ATCC 29212 = CCM 4224 assessed as inhibition of bacterial growth incubated for 24 hrs by microdilution assay; format: functional
[13] = system: Staphylococcus aureus; experiment: Antibacterial activity against Staphylococcus aureus ATCC 29213 = CCM 4223 assessed as inhibition of bacterial growth incubated for 24 hrs in presence of BSA by microdilution assay; format: functional
[14] = system: Escherichia coli; experiment: Antibacterial activity against multidrug-resistant Escherichia coli CE5556 expressing CTX-M-15 assessed as reduction in microbial growth incubated for 24 hrs by microdilution assay; format: functional
[15] = system: Cell membrane; experiment: Induction of plasma membrane depolarization in Escherichia coli CCM 3954 assessed as increase in fluorescence intensity at 2.5 mg/L measured after 80 seconds by DiSC3-5 dye based spectrofluorometer method; format: cell membranes; conditions: time 80.0 sec
[16] = system: Enterococcus faecium; experiment: Antibacterial activity against vancomycin resistant Enterococcus faecium 419/ANA assessed as reduction in microbial growth incubated for 24 hrs by microdilution assay; format: functional
[17] = system: Staphylococcus aureus; experiment: Antibacterial activity against Staphylococcus aureus ATCC 29213 = CCM 4223 assessed as inhibition of bacterial growth incubated for 24 hrs by microdilution assay; format: functional
[18] = system: Staphylococcus aureus; experiment: Antibacterial activity against antibiotic resistant Staphylococcus aureus 4502/A assessed as reduction in microbial growth incubated for 24 hrs by microdilution assay; format: functional
[19] = system: Staphylococcus aureus; experiment: Antibacterial activity against wild type methicillin resistant Staphylococcus aureus 5017/C assessed as reduction in microbial growth incubated for 24 hrs by microdilution assay; format: functional
[20] = system: Staphylococcus aureus; experiment: Antibacterial activity against antibiotic resistant Staphylococcus aureus 4862/C assessed as reduction in microbial growth incubated for 24 hrs by microdilution assay; format: functional
[21] = system: Staphylococcus aureus; experiment: Antibacterial activity against antibiotic resistant Staphylococcus aureus 4788/B assessed as reduction in microbial growth incubated for 24 hrs by microdilution assay; format: functional
[22] = system: Staphylococcus aureus; experiment: Antibacterial activity against antibiotic resistant Staphylococcus aureus 4717/B assessed as reduction in microbial growth incubated for 24 hrs by microdilution assay; format: functional
[23] = system: Staphylococcus aureus; experiment: Antibacterial activity against antibiotic resistant Staphylococcus aureus 4504/A assessed as reduction in microbial growth incubated for 24 hrs by microdilution assay; format: functional
[24] = system: Staphylococcus aureus; experiment: Antibacterial activity against antibiotic resistant Staphylococcus aureus 4904/C assessed as reduction in microbial growth incubated for 24 hrs by microdilution assay; format: functional
[25] = system: Staphylococcus aureus; experiment: Antibacterial activity against antibiotic resistant Staphylococcus aureus 4566/A assessed as reduction in microbial growth incubated for 24 hrs by microdilution assay; format: functional
[26] = system: Staphylococcus aureus; experiment: Antibacterial activity against antibiotic resistant Staphylococcus aureus 4482/A assessed as reduction in microbial growth incubated for 24 hrs by microdilution assay; format: functional
[27] = system: Staphylococcus aureus; experiment: Antibacterial activity against antibiotic resistant Staphylococcus aureus 4883/C assessed as reduction in microbial growth incubated for 24 hrs by microdilution assay; format: functional
[28] = system: Staphylococcus aureus; experiment: Antibacterial activity against antibiotic resistant Staphylococcus aureus 4461/A assessed as reduction in microbial growth incubated for 24 hrs by microdilution assay; format: functional
[29] = system: Staphylococcus aureus; experiment: Antibacterial activity against antibiotic resistant Staphylococcus aureus 4463/A assessed as reduction in microbial growth incubated for 24 hrs by microdilution assay; format: functional
[30] = system: Staphylococcus aureus; experiment: Antibacterial activity against wild type methicillin resistant Staphylococcus aureus 4968/C assessed as reduction in microbial growth incubated for 24 hrs by microdilution assay; format: functional
[31] = system: Staphylococcus aureus; experiment: Antibacterial activity against antibiotic resistant Staphylococcus aureus 4515/A assessed as reduction in microbial growth incubated for 24 hrs by microdilution assay; format: functional
[32] = system: Staphylococcus aureus; experiment: Antibacterial activity against antibiotic resistant Staphylococcus aureus 4740/B assessed as reduction in microbial growth incubated for 24 hrs by microdilution assay; format: functional
[33] = system: Staphylococcus aureus; experiment: Antibacterial activity against antibiotic resistant Staphylococcus aureus 5079/C assessed as reduction in microbial growth incubated for 24 hrs by microdilution assay; format: functional
[34] = system: Staphylococcus aureus; experiment: Antibacterial activity against antibiotic resistant Staphylococcus aureus 77/CF assessed as reduction in microbial growth incubated for 24 hrs by microdilution assay; format: functional
[35] = system: Staphylococcus aureus; experiment: Antibacterial activity against antibiotic resistant Staphylococcus aureus 4460/A assessed as reduction in microbial growth incubated for 24 hrs by microdilution assay; format: functional
[36] = system: Staphylococcus aureus; experiment: Antibacterial activity against wild type methicillin resistant Staphylococcus aureus 4561/A assessed as reduction in microbial growth incubated for 24 hrs by microdilution assay; format: functional
[37] = system: Staphylococcus aureus; experiment: Antibacterial activity against antibiotic resistant Staphylococcus aureus 4738/B assessed as reduction in microbial growth incubated for 24 hrs by microdilution assay; format: functional
[38] = system: Staphylococcus aureus; experiment: Antibacterial activity against antibiotic resistant Staphylococcus aureus 78/CF assessed as reduction in microbial growth incubated for 24 hrs by microdilution assay; format: functional
[39] = system: Staphylococcus aureus; experiment: Antibacterial activity against antibiotic resistant Staphylococcus aureus 4557/A assessed as reduction in microbial growth incubated for 24 hrs by microdilution assay; format: functional
[40] = system: Staphylococcus aureus; experiment: Antibacterial activity against antibiotic resistant Staphylococcus aureus 4679/B assessed as reduction in microbial growth incubated for 24 hrs by microdilution assay; format: functional
[41] = system: Staphylococcus aureus; experiment: Antibacterial activity against antibiotic resistant Staphylococcus aureus 4880/C assessed as reduction in microbial growth incubated for 24 hrs by microdilution assay; format: functional

CCCCCCCCOP(=O)(CCN(CCCN)CCCN)OCCCCCCCCCCOP(=O)(CCN(CCCN)CCCN)OCCCCCCCC.Cl.Cl.Cl.Cl.Cl.Cl (stereo unspecified)
Activity [1]: Active | CHI [2]: 40.6 | MIC [3]: 1 µg/mL | MIC [4]: 0.5 µg/mL | MIC [5]: 0.5 µg/mL | Activity [6]: Active | MIC [7]: 0.5 µg/mL | MIC [8]: 1 µg/mL | HC50 at 3 h [9]: 6.4 µg/mL | MIC [10]: 3 µg/mL | Activity [11]: Dde | MIC [12]: 0.5 µg/mL | MIC [13]: 0.125 µg/mL | MIC [14]: 1 µg/mL | Activity [15]: Active | MIC [16]: 1 µg/mL | MIC [17]: 0.5 µg/mL

CC1(C)S[C@@H]2[C@H](NC(=O)Cc3ccccc3)C(=O)N2[C@H]1C(=O)O [PENICILLIN G]
MIC [18]: 0.25 µg/mL | MIC [19]: > 4 µg/mL | MIC [20]: 1 µg/mL | MIC [21]: 0.25 µg/mL | MIC [22]: 0.5 µg/mL | MIC [23]: 0.25 µg/mL | MIC [24]: 0.25 µg/mL | MIC [25]: 0.25 µg/mL | MIC [26]: 2 µg/mL | MIC [27]: 0.25 µg/mL | MIC [28]: 1 µg/mL | MIC [29]: 0.25 µg/mL | MIC [30]: > 4 µg/mL | MIC [31]: 0.5 µg/mL | MIC [32]: 0.25 µg/mL | MIC [33]: 0.25 µg/mL | MIC [34]: 0.5 µg/mL | MIC [35]: 1 µg/mL | MIC [36]: > 2 µg/mL | MIC [37]: 1 µg/mL | MIC [38]: 0.25 µg/mL | MIC [39]: 0.25 µg/mL | MIC [40]: 0.5 µg/mL | MIC [41]: 0.25 µg/mL
